In publication PMC8617627, “Novel DYRK1A Inhibitor Rescues Learning and Memory Deficits in a Mouse Model of Down Syndrome” (Pharmaceuticals, 2021):
Like-named read-outs stand apart in the source and are kept apart here.

What was measured:
Assay in all cases: Kinase profile (33P ATP filter binding)
Type in all cases: biochemical
Conditions in all cases: read-out: Remaining protein kinase activity
MAPKAP-K2 = MAPKAP-K2 (Homo sapiens, UniProt P49137)
DDR2 = target: T1, DDR2 (Homo sapiens, UniProt Q16832)
T1 sequence (Q16832 22-855): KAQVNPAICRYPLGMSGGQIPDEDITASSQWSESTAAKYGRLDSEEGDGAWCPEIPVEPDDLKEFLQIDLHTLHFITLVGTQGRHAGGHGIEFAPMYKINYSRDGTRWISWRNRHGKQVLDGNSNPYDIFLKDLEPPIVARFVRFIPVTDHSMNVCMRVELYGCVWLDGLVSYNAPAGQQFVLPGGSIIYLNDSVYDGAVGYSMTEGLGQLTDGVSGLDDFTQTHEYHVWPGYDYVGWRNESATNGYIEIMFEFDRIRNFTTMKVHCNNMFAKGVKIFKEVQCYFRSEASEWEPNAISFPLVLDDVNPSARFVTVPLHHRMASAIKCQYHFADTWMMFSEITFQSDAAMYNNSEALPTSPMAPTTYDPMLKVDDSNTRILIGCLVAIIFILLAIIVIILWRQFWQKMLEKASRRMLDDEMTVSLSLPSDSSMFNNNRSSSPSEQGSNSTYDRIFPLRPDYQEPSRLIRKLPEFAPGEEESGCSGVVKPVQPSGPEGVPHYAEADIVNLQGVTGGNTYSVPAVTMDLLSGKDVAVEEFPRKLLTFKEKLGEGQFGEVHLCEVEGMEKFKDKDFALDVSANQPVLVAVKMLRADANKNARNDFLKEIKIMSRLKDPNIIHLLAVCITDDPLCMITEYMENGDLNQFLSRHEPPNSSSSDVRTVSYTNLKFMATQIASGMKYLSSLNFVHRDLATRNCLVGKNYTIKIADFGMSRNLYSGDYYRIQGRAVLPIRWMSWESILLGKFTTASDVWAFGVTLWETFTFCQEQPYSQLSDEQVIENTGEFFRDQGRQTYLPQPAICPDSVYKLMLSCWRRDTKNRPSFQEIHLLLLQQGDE

BRSK2 = target: T2, BRSK2 (Homo sapiens, UniProt Q8IWQ3)
T2 sequence (Q8IWQ3 1-736): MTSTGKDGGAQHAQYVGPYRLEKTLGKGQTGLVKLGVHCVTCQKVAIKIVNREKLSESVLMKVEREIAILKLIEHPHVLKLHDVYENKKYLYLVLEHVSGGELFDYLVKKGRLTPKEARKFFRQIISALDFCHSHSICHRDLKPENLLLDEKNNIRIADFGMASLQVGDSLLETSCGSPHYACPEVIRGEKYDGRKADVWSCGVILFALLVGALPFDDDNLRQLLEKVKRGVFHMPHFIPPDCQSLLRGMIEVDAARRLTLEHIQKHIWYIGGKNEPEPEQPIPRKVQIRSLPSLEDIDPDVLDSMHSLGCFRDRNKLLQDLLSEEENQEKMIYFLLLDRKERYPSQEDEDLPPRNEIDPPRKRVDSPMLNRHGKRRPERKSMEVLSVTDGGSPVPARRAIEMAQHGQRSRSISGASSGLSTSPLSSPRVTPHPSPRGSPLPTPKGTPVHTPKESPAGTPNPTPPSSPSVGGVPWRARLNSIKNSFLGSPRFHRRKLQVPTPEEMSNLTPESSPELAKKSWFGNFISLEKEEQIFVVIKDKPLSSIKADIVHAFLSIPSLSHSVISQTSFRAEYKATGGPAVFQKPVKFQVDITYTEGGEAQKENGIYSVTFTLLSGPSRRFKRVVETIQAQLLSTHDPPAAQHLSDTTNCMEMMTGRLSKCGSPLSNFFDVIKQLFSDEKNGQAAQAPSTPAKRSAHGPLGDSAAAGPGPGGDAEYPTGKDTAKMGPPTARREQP

MKK6 = target: T3, MKK6 (Homo sapiens, UniProt P52564)
T3 sequence (P52564 1-334): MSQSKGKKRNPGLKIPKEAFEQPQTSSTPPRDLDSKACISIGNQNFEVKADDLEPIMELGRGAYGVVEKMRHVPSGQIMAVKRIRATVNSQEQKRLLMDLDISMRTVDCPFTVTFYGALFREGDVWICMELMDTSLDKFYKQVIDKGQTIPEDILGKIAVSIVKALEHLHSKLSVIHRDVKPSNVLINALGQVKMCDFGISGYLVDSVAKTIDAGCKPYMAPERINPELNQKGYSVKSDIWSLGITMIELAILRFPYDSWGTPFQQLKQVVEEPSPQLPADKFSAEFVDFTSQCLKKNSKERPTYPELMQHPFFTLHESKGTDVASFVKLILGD

TIE2 = TIE2 (Homo sapiens, UniProt Q02763)
BRK = BRK (Homo sapiens, UniProt Q13882)
MKK1 = MKK1 (Homo sapiens, UniProt Q02750)
TrkA = TrkA (Homo sapiens, UniProt P04629)
MARK1 = MARK1 (Homo sapiens, UniProt Q9P0L2)
MARK1, sequence (Q9P0L2 whole entry): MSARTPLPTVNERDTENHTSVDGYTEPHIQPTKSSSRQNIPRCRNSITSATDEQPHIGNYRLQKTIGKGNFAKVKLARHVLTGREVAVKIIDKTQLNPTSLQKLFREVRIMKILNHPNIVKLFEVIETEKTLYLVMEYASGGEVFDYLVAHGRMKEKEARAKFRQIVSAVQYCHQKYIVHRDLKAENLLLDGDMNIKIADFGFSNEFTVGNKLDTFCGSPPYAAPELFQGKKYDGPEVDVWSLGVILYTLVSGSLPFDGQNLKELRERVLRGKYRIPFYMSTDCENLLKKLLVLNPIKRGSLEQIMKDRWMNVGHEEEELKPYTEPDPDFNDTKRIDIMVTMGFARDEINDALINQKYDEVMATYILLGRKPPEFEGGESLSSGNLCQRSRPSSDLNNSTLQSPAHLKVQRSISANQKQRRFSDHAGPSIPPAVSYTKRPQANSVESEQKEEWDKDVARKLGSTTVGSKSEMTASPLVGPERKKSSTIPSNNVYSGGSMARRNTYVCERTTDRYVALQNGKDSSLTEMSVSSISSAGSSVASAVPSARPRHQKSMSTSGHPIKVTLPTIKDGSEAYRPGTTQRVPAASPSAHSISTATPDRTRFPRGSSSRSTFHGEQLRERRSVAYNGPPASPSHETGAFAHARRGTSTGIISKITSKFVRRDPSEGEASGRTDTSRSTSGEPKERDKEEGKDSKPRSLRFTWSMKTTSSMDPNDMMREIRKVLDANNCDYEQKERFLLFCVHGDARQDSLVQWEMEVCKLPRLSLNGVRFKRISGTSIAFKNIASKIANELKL

TIE2, sequence (Q02763 23-1124): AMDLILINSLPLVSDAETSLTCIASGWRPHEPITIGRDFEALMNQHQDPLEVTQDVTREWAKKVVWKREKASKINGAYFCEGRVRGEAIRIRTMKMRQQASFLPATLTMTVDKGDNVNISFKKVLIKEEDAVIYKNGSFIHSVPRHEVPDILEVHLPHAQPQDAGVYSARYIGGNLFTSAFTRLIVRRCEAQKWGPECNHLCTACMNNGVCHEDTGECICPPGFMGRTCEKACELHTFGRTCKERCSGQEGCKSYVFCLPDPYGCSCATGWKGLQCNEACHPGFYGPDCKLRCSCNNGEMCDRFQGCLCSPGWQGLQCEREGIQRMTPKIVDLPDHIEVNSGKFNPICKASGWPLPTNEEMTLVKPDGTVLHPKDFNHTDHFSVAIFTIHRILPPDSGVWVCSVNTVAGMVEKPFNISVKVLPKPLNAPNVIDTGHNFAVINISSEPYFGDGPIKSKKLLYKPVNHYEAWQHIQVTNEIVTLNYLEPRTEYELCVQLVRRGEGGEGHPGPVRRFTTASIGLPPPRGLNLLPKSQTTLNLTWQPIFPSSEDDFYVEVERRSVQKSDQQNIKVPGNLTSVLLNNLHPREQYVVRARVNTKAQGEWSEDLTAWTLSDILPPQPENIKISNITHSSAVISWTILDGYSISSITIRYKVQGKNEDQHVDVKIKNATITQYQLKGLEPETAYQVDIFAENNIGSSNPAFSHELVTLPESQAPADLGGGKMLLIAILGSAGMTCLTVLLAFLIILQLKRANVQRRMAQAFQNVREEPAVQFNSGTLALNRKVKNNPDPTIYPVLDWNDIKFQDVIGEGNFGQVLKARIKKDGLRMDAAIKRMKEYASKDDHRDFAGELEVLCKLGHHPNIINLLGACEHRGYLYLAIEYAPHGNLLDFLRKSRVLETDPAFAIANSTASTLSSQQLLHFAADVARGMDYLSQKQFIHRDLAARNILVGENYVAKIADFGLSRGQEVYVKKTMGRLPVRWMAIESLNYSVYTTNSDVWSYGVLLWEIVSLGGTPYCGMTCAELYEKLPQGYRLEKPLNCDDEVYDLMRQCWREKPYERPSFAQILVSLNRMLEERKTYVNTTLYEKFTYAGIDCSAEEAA
MAPKAP-K2, sequence (P49137 whole entry): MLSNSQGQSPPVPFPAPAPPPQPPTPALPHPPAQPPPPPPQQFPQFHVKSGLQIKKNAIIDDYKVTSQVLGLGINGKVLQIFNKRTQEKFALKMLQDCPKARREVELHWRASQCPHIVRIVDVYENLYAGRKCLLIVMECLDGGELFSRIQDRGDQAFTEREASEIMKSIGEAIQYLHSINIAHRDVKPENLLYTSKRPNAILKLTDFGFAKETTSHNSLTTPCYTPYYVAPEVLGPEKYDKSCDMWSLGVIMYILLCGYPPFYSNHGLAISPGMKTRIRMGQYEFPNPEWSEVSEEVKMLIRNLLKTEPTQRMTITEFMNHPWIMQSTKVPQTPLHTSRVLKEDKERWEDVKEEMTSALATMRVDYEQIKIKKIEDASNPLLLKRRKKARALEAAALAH
MKK1, sequence (Q02750 whole entry, species assumed): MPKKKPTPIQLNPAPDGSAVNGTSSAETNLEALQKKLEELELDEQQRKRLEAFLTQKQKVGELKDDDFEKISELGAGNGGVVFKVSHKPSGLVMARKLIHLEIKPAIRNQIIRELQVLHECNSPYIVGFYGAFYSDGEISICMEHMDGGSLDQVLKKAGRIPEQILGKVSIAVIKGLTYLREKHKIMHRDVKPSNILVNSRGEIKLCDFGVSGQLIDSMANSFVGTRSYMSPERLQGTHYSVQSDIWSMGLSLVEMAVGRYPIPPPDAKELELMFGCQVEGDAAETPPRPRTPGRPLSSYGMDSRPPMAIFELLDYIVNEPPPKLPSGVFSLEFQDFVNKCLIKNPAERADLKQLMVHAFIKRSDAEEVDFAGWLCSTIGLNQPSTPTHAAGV
TrkA, sequence (P04629 33-796): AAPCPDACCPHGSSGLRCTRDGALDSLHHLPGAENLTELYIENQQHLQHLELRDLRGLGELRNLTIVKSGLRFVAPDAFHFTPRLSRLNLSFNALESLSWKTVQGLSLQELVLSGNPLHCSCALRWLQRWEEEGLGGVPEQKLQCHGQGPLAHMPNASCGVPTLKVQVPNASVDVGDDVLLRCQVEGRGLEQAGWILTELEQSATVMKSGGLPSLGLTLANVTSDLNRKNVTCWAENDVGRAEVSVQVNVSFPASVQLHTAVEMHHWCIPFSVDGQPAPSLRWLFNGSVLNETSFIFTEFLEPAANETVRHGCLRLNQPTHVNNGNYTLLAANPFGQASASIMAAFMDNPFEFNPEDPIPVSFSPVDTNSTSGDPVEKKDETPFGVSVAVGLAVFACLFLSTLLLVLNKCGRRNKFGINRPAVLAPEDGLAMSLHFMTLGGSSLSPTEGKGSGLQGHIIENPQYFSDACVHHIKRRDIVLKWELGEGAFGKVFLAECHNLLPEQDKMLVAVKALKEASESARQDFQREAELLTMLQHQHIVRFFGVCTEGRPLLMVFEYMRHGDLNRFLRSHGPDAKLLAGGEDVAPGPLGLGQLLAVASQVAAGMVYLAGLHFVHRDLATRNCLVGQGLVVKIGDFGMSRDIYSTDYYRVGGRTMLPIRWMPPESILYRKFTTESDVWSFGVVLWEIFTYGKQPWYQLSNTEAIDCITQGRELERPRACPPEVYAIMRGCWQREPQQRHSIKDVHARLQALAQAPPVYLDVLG
BRK, sequence (Q13882 whole entry): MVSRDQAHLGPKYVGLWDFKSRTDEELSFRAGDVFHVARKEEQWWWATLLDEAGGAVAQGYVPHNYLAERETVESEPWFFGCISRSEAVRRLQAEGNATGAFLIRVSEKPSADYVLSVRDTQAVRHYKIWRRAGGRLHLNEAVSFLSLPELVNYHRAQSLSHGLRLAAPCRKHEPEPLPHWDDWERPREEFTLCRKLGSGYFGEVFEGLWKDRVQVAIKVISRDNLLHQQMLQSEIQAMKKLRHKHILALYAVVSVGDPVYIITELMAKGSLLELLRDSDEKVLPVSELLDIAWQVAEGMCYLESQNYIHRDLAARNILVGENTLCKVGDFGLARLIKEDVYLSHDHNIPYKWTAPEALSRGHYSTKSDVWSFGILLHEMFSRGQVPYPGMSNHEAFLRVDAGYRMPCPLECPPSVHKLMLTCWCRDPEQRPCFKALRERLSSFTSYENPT

For `COc1ccc2sc(-c3cncc(N)c3)nc2c1` [compound 1, 5-(5-Methoxybenzo[d]thiazol-2-yl)pyridin-3-amine], the remaining activity at 1 µM (MAPKAP-K2; MAPKAP-K2, 1 μM) was 122%, the remaining activity at 100 µM (MAPKAP-K2; MAPKAP-K2, 100 μM) was 66% and the remaining activity at 1 µM (DDR2; DDR2, 1 μM) was 107%. The remaining activity at 100 µM (DDR2; DDR2, 100 μM) was 49%, the remaining activity at 1 µM (BRSK2; BRSK2, 1 μM) was 125% and the remaining activity at 100 µM (BRSK2; BRSK2, 100 μM) was 53%. For the same molecule, the remaining activity at 1 µM (MKK6; MKK6, 1 μM) was 120%, the remaining activity at 100 µM (MKK6; MKK6, 100 μM) was 118% and the remaining activity at 1 µM (TIE2; TIE2, 1 μM) was 135%. For the same molecule, the remaining activity at 100 µM (TIE2; TIE2, 100 μM) was 85%, the remaining activity at 1 µM (BRK; BRK, 1 μM) was 94% and the remaining activity at 100 µM (BRK; BRK, 100 μM) was 50%. It also gave a remaining activity at 1 µM (MKK1; MKK1, 1 μM) of 101%, a remaining activity at 100 µM (MKK1; MKK1, 100 μM) of 84% and a remaining activity at 1 µM (TrkA; TrkA, 1 μM) of 104%. The remaining activity at 100 µM (TrkA; TrkA, 100 μM) was 33%, the remaining activity at 1 µM (MARK1; MARK1, 1 μM) was 122% and the remaining activity at 100 µM (MARK1; MARK1, 100 μM) was 69%.

For `COc1ccc2sc(-c3cncc(NC(C)=O)c3)nc2c1` [PST-001, N-(5-(5-Methoxybenzo[d]thiazol-2-yl)pyridin-3-yl)acetamide], the remaining activity at 1 µM (MAPKAP-K2) was 109%, the remaining activity at 100 µM (MAPKAP-K2) was 111% and the remaining activity at 1 µM (DDR2) was 98%. The remaining activity at 100 µM (DDR2) was 80%, the remaining activity at 1 µM (BRSK2) was 128% and the remaining activity at 100 µM (BRSK2) was 125%. The remaining activity at 1 µM (MKK6) was 140%, the remaining activity at 100 µM (MKK6) was 115% and the remaining activity at 1 µM (TIE2) was 129%. For the same molecule, the remaining activity at 100 µM (TIE2) was 133%, the remaining activity at 1 µM (BRK) was 106% and the remaining activity at 100 µM (BRK) was 106%. It also gave a remaining activity at 1 µM (MKK1) of 117%, a remaining activity at 100 µM (MKK1) of 135% and a remaining activity at 1 µM (TrkA) of 111%. It also gave a remaining activity at 100 µM (TrkA) of 45%, a remaining activity at 1 µM (MARK1) of 122% and a remaining activity at 100 µM (MARK1) of 110%.
